Measured values from US20250129070A1, “BIFUNCTIONAL ANDROGEN RECEPTOR COMPOUNDS” (priority 2023, published 2025).
pEC50, pIC50: −log10 of the molar value.

Key:
AR / CBP ternary complex = assay: Ternary complex formation assay (sandwich ELISA, AR capture / CBP detection) in VCaP cell lysates; format: cell-based; conditions: 1.5 hours treatment, sandwich ELISA (AR capture, CBP or p300 detection)
Procedure, shortened: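 Anti-AR (AR 441)-coated plates capture AR from lysates of VCaP cells grown ≥3 days at 50K/well in 5% charcoal-stripped FBS, dosed with bifunctional for 1.5 h and lysed 30 min at 4 °C. Co-captured CBP/p300 is probed with rabbit mAb and HRP anti-rabbit, then QuantaRed fluorescence (570/585) is read at 0, 5 and 15 min.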

VCaP cells = assay: VCaP growth inhibition assay; format: cell-based; conditions: 30 pM R1881, 9 days, CTG
Procedure, shortened: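 Growth read by CTG luminescence after 9-day exposure to compound (final 100 nM–10 fM, 1:5 steps) plus 30 pM R1881, in phenol red-free DMEM with 5% CSS. Cells pre-incubated 72 h before dosing; IC50 by nonlinear 4-parameter regression.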

Row | pEC50 (AR / CBP ternary complex) | pIC50 (VCaP cells) | Compound
1 | > 9.00 | 9.00 to 10.00 | CC(=O)N1CCc2c(c(N3CCCc4cc(-c5cnn(C)c5)c(C)cc43)nn2C2CCN(C3CCC4(CC3)CN(c3ncc(C(=O)NC5C(C)(C)C(Oc6ccc(C#N)c(Cl)c6C)C5(C)C)cn3)C4)CC2)C1 (stereo not drawn) [Compound 473, 2-[7-[4-[5-acetyl-3-[7-methyl-6-(1-methylpyrazol-4-yl)-3,4-dihydro-2H-quinolin-1-yl]-6,7-dihydro-4H-pyrazolo[4,3-c]pyridin-1-yl]-1-piperidyl]-2-azaspiro[3.5]nonan-2-yl]-N-[3-(3-chloro-4-cyano-2-methyl-phenoxy)-2,2,4,4-tetramethyl-cyclobutyl]pyrimidine-5-carboxamide]
2 | 8.00 to 9.00 | 7.00 to 9.00 | COc1cc(OC2C(C)(C)C(NC(=O)c3ccc(N4CCC5(CCC(n6nc(N7CCCc8cc(-c9cnn(C)c9)c(C(F)F)cc87)c7c6CCN(C(C)=O)C7)CC5)C4)cc3)C2(C)C)ccc1C#N (stereo not drawn) [Compound 406, 4-[8-[5-acetyl-3-[7-(difluoromethyl)-6-(1-methylpyrazol-4-yl)-3,4-dihydro-2H-quinolin-1-yl]-6,7-dihydro-4H-pyrazolo[4,3-c]pyridin-1-yl]-2-azaspiro[4.5]decan-2-yl]-N-[3-(4-cyano-3-methoxy-phenoxy)-2,2,4,4-tetramethyl-cyclobutyl]benzamide]
3 | > 9.00 | 9.00 to 10.00 | COc1cc(OC2C(C)(C)C(NC(=O)c3ccc(N4CCC(C5CN(c6ccc(-c7cc8cccc(-c9nn(C%10CCOCC%10)c%10c9CN(C(C)=O)CC%10)c8cn7)cn6)C5)CC4)cc3)C2(C)C)ccc1C#N (stereo not drawn) [Compound 268, 4-[4-[1-[5-[8-(5-acetyl-1-tetrahydropyran-4-yl-6,7-dihydro-4H-pyrazolo[4,3-c]pyridin-3-yl)-3-isoquinolyl]-2-pyridyl]azetidin-3-yl]-1-piperidyl]-N-[3-(4-cyano-3-methoxy-phenoxy)-2,2,4,4-tetramethyl-cyclobutyl]benzamide]
4 | < 7.00 | 9.00 to 10.00 | CNC(=O)N1CCc2c(c(N3CCCc4cc(-c5cnn(C)c5)c(C(F)F)cc43)nn2C2CCN(c3ncc(C(=O)NC4C(C)(C)C(Oc5ccc(C#N)c(Cl)c5)C4(C)C)cn3)CC2)C1 (stereo not drawn) [Compound 93, 1-[1-[5-[[3-(3-chloro-4-cyano-phenoxy)-2,2,4,4-tetramethyl-cyclobutyl]carbamoyl]pyrimidin-2-yl]-4-piperidyl]-3-[7-(difluoromethyl)-6-(1-methylpyrazol-4-yl)-3,4-dihydro-2H-quinolin-1-yl]-N-methyl-6,7-dihydro-4H-pyrazolo[4,3-c]pyridine-5-carboxamide]
5 | > 9.00 | 9.00 to 10.00 | CC(=O)N1CCc2c(c(N3CCCc4cc(-c5cnn(C)c5)c(C(F)F)cc43)nn2C2CCN(CC#CCCc3ncc(C(=O)NC4C(C)(C)C(Oc5ccc(C#N)c(Cl)c5)C4(C)C)cn3)CC2)C1 (stereo not drawn) [Compound 18, 2-[5-[4-[5-acetyl-3-[7-(difluoromethyl)-6-(1-methylpyrazol-4-yl)-3,4-dihydro-2H-quinolin-1-yl]-6,7-dihydro-4H-pyrazolo[4,3-c]pyridin-1-yl]-1-piperidyl]pent-3-ynyl]-N-[3-(3-chloro-4-cyano-phenoxy)-2,2,4,4-tetramethyl-cyclobutyl]pyrimidine-5-carboxamide]
6 | 7.00 to 8.00 | 9.00 to 10.00 | CC(=O)N1CCc2c(c(-c3cccc4cc(-c5ccc(CC6CC7(C6)CN(c6ncc(C(=O)NC8C(C)(C)C(Oc9ccc(C#N)c(Cl)c9)C8(C)C)cn6)C7)nc5)ncc34)nn2C)C1 (stereo not drawn) [Compound 230, 2-[6-[[5-[8-(5-acetyl-1-methyl-6,7-dihydro-4H-pyrazolo[4,3-c]pyridin-3-yl)-3-isoquinolyl]-2-pyridyl]methyl]-2-azaspiro[3.3]heptan-2-yl]-N-[3-(3-chloro-4-cyano-phenoxy)-2,2,4,4-tetramethyl-cyclobutyl]pyrimidine-5-carboxamide]
7 | > 9.00 | 9.00 to 10.00 | COc1cc(OC2C(C)(C)C(NC(=O)c3ccc(N4CCC(CCc5ccc(-c6cc7c(cn6)N(c6nn(C8CCOCC8)c8c6CN(C(C)=O)CC8)CCC7)cn5)CC4)cc3)C2(C)C)ccc1C#N (stereo not drawn) [Compound 246, 4-[4-[2-[5-[1-(5-acetyl-1-tetrahydropyran-4-yl-6,7-dihydro-4H-pyrazolo[4,3-c]pyridin-3-yl)-3,4-dihydro-2H-1,7-naphthyridin-6-yl]-2-pyridyl]ethyl]-1-piperidyl]-N-[3-(4-cyano-3-methoxy-phenoxy)-2,2,4,4-tetramethyl-cyclobutyl]benzamide]
8 | > 9.00 | ≥ 10.00 | CC(=O)N1CCc2c(c(N3CCCc4cc(-c5cnn(C)c5)c(C(F)F)cc43)nn2C2CCC3(CC2)CN(C2CCN(c4ncc(C(=O)NC5C(C)(C)C(Oc6ccc(C#N)c(Cl)c6)C5(C)C)cn4)CC2)C3)C1 (stereo not drawn) [Compound 371, 2-[4-[7-[5-acetyl-3-[7-(difluoromethyl)-6-(1-methylpyrazol-4-yl)-3,4-dihydro-2H-quinolin-1-yl]-6,7-dihydro-4H-pyrazolo[4,3-c]pyridin-1-yl]-2-azaspiro[3.5]nonan-2-yl]-1-piperidyl]-N-[3-(3-chloro-4-cyano-phenoxy)-2,2,4,4-tetramethyl-cyclobutyl]pyrimidine-5-carboxamide]
9 | > 9.00 | 9.00 to 10.00 | COc1cc(OC2C(C)(C)C(NC(=O)c3ccc(OC4CC5(C4)CC(N4CCC(n6nc(N7CCCc8cc(-c9cnn(C)c9)c(C(F)F)cc87)c7c6CCN(C(C)=O)C7)CC4)C5)cc3)C2(C)C)ccc1C#N (stereo not drawn) [Compound 386, 4-[6-[4-[5-acetyl-3-[7-(difluoromethyl)-6-(1-methylpyrazol-4-yl)-3,4-dihydro-2H-quinolin-1-yl]-6,7-dihydro-4H-pyrazolo[4,3-c]pyridin-1-yl]-1-piperidyl]spiro[3.3]heptan-2-yl]oxy-N-[3-(4-cyano-3-methoxy-phenoxy)-2,2,4,4-tetramethyl-cyclobutyl]benzamide]
10 | 8.00 to 9.00 | < 7.00 | CC(=O)N1CCc2c(c(N3CCCc4cc(-c5cnn(C)c5)c(C(F)F)cc43)nn2C2CCN([C@H]3CCCN(c4ncc(C(=O)NC5C(C)(C)C(Oc6ccc(C#N)c(Cl)c6)C5(C)C)cn4)C3)CC2)C1 (stereo partly drawn) [Compound 397, 2-[(3S)-3-[4-[5-acetyl-3-[7-(difluoromethyl)-6-(1-methylpyrazol-4-yl)-3,4-dihydro-2H-quinolin-1-yl]-6,7-dihydro-4H-pyrazolo[4,3-c]pyridin-1-yl]-1-piperidyl]-1-piperidyl]-N-[3-(3-chloro-4-cyano-phenoxy)-2,2,4,4-tetramethyl-cyclobutyl]pyrimidine-5-carboxamide]
11 | > 9.00 | ≥ 10.00 | COc1cc(OC2C(C)(C)C(NC(=O)c3cnc(N4CCC(CN5CCC(n6nc(N7CCCc8cc(-c9cnn(C)c9)c(C(F)F)cc87)c7c6CCN(C(C)=O)C7)CC5)C5(CC5)C4)nc3)C2(C)C)ccc1C#N (stereo not drawn) [Compound 362, 2-[8-[[4-[5-acetyl-3-[7-(difluoromethyl)-6-(1-methylpyrazol-4-yl)-3,4-dihydro-2H-quinolin-1-yl]-6,7-dihydro-4H-pyrazolo[4,3-c]pyridin-1-yl]-1-piperidyl]methyl]-5-azaspiro[2.5]octan-5-yl]-N-[3-(4-cyano-3-methoxy-phenoxy)-2,2,4,4-tetramethyl-cyclobutyl]pyrimidine-5-carboxamide]
12 | > 9.00 | ≥ 10.00 | COc1cc(OC2C(C)(C)C(NC(=O)c3ccc(N4CCC(N5CCC(n6nc(N7CCCc8cc(-c9cnn(C)c9)c(C(F)F)cc87)c7c6CCN(C(C)=O)C7)CC5)CC4)cc3)C2(C)C)ccc1C#N (stereo not drawn) [Compound 277, 4-[4-[4-[5-acetyl-3-[7-(difluoromethyl)-6-(1-methylpyrazol-4-yl)-3,4-dihydro-2H-quinolin-1-yl]-6,7-dihydro-4H-pyrazolo[4,3-c]pyridin-1-yl]-1-piperidyl]-1-piperidyl]-N-[3-(4-cyano-3-methoxy-phenoxy)-2,2,4,4-tetramethyl-cyclobutyl]benzamide]
13 | > 9.00 | 9.00 to 10.00 | CC(=O)N1CCc2c(c(N3CCCc4cc(-c5cnn(C)c5)c(C(F)F)cc43)nn2C2CCN(CCOc3ncc(C(=O)NC4C(C)(C)C(Oc5ccc(C#N)c(Cl)c5)C4(C)C)cn3)CC2)C1 (stereo not drawn) [Compound 89, 2-[2-[4-[5-acetyl-3-[7-(difluoromethyl)-6-(1-methylpyrazol-4-yl)-3,4-dihydro-2H-quinolin-1-yl]-6,7-dihydro-4H-pyrazolo[4,3-c]pyridin-1-yl]-1-piperidyl]ethoxy]-N-[3-(3-chloro-4-cyano-phenoxy)-2,2,4,4-tetramethyl-cyclobutyl]pyrimidine-5-carboxamide]
14 | 8.00 to 9.00 | ≥ 10.00 | CC(=O)N1CCc2c(c(N3CCCc4ccc(C(F)F)cc43)nn2C2CCN(CC3CCN(c4ncc(C(=O)NC5C(C)(C)C(Oc6ccc(C#N)c(Cl)c6)C5(C)C)cn4)CC3)CC2)C1 (stereo not drawn) [Compound 150, 2-[4-[[4-[5-acetyl-3-[7-(difluoromethyl)-3,4-dihydro-2H-quinolin-1-yl]-6,7-dihydro-4H-pyrazolo[4,3-c]pyridin-1-yl]-1-piperidyl]methyl]-1-piperidyl]-N-[3-(3-chloro-4-cyano-phenoxy)-2,2,4,4-tetramethyl-cyclobutyl]pyrimidine-5-carboxamide]

Row | Compound | pEC50 (AR / CBP ternary complex) | pIC50 (VCaP cells)
15 | COc1cc(OC2C(C)(C)C(NC(=O)c3ccc(N4CC5CC4CC5CN4CCC(n5nc(N6CCCc7cc(-c8cnn(C)c8)c(C(F)F)cc76)c6c5CCN(C(C)=O)C6)CC4)cc3)C2(C)C)ccc1C#N (stereo not drawn) [Compound 255, 4-[5-[[4-[5-acetyl-3-[7-(difluoromethyl)-6-(1-methylpyrazol-4-yl)-3,4-dihydro-2H-quinolin-1-yl]-6,7-dihydro-4H-pyrazolo[4,3-c]pyridin-1-yl]-1-piperidyl]methyl]-2-azabicyclo[2.2.1]heptan-2-yl]-N-[3-(4-cyano-3-methoxy-phenoxy)-2,2,4,4-tetramethyl-cyclobutyl]benzamide] | > 9.00 | 9.00 to 10.00
